# Results: US12692254B2, “Benzimidazole inhibitors of PAD enzymes” (BRISTOL-MYERS SQUIBB COMPANY, priority 2018, dated 2026)
# Biological target: human PAD4 (hPAD4) (Homo sapiens, UniProt Q9UM07)
# Assay: RFMS human PAD4 functional assay (rapid-fire mass spectrum)
# Assay type: biochemical
# Conditions: 5 nM hPAD4 enzyme, 250 μM BAEE, 50 μM Calcium; 30 min preincubation, 90 min reaction at 37° C.
# How it was run: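 PAD4 (10 nM) preincubated 30 min with compound (top final 50 μM), then BAEE substrate added in pH 7.5 HEPES buffer with DTT, 50 μM calcium, TPEN; 90 min at 37° C. After TCA quench, citrulline derivatized with phenyl glyoxal (4 mM final, 30 min, 37° C) and quantified by RapidFire MS against internal standard.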
# Chain of human PAD4 (hPAD4) (Q9UM07 whole entry): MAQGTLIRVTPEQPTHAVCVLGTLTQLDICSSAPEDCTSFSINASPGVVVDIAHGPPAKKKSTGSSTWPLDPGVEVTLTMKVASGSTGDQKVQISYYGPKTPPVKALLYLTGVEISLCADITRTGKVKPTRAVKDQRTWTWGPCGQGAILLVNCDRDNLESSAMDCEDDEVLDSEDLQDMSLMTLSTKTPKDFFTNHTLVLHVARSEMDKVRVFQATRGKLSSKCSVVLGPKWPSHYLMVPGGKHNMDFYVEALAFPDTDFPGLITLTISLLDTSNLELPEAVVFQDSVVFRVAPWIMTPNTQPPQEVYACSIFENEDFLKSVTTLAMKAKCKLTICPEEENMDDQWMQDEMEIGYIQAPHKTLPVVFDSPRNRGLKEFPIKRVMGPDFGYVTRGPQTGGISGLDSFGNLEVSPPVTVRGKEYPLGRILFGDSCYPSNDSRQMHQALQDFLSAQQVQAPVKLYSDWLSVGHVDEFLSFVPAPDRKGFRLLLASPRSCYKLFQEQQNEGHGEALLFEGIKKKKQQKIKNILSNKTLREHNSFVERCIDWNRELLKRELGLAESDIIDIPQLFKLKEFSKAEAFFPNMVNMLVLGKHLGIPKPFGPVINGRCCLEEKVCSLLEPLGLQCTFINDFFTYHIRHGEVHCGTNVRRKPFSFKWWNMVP
row,SMILES,IC50 [nM]
1,"CCn1cc(Cn2c(-c3cc4ccccc4n3CC3CC3)nc3cc(C(=O)N4CC5CCC4[C@@H]5N)cc(OC)c32)cn1 (stereo partly drawn) [Example 481, (7R)-2-{2-[1-(cyclopropylmethyl)-1H-indol-2-yl]-1-[(1-ethyl-1H-pyrazol-4-yl)methyl]-7-methoxy-1H-1,3-benzodiazole-5-carbonyl}-2-azabicyclo[2.2.1]heptan-7-amine]",20
2,"C=CC(=O)N1CC(Cn2c(-c3cc4cccnc4n3CC3CC3)nc3cc(C(=O)N4C[C@H]5CC[C@@H]4[C@@H]5N)cc(OC)c32)C1 [Example 124, 1-[3-({5-[(1R,4R,7R)-7-amino-2-azabicyclo[2.2.1]heptane-2-carbonyl]-2-[1-(cyclopropylmethyl)-1H-pyrrolo[2,3-b]pyridin-2-yl]-7-methoxy-1H-1,3-benzodiazol-1-yl}methyl)azetidin-1-yl]prop-2-en-1-one]",102
3,"COc1nccc(N2CCC(Cn3c(-c4cc5cccnc5n4CC4CC4)nc4cc(C(=O)N5CC6CCC5[C@@H]6N)cc(OC)c43)CC2)n1 (stereo partly drawn) [Example 222, (1R.,4R,7R)-2-{2-[1-(cyclopropylmethyl)-1H-pyrrolo[2,3-b]pyridin-2-yl]-7-methoxy-1-{[1-(2-methoxypyrimidin-4-yl)piperidin-4-yl]methyl}-1H-1,3-benzodiazole-5-carbonyl}-2-azabicyclo[2.2.1]heptan-7-amine]",166
4,COc1cc(C(=O)N2CC3CCC2[C@@H]3N)cc2nc(-c3cc4ccccc4n3CC3CC3)n(Cc3ccccc3)c12 (stereo partly shown) [Example 270],140
5,"COc1ncc(-n2cc(Cn3c(-c4cc5ccccc5n4CC4CC4)nc4cc(C(=O)N5CC6CCC5[C@@H]6N)cc(OC)c43)cn2)cc1F (stereo partly drawn) [Example 410, (7R)-2-{2-[1-(cyclopropylmethyl)-1H-indol-2-yl]-1-{[1-(5-fluoro-6-methoxypyridin-3-yl)-1H-pyrazol-4-yl]methyl}-7-methoxy-1H-1,3-benzodiazole-5-carbonyl}-2-azabicyclo[2.2.1]heptan-7-amine]",87
6,"COc1cc(C(=O)N2CC3CCC2[C@@H]3N)cc2nc(-c3cc4ccccc4n3CC3CC3)n(Cc3cn(C)nc3C)c12 (stereo partly drawn) [Example 492, (7R)-2-{2-[1-(cyclopropylmethyl)-1H-indol-2-yl]-1-[(1,3-dimethyl-1H-pyrazol-4-yl)methyl]-7-methoxy-1H-1,3-benzodiazole-5-carbonyl}-2-azabicyclo[2.2.1]heptan-7-amine]",78
7,"COc1cc(C(=O)N2C[C@H]3CC[C@@H]2[C@@H]3N)cc2nc(-c3cc4cccnc4n3CC3CC3)n(C[C@H]3CCN(c4ccnc(C)n4)C3)c12 [Example 208, ((1R,4R,7R)-7-amino-2-azabicyclo[2.2.1]heptan-2-yl)(2-(1-(cyclopropylmethyl)-1H-pyrrolo[2,3-b]pyridin-2-yl)-7-methoxy-1-(((S)-1-(2-methylpyrimidin-4-yl)pyrrolidin-3-yl)methyl)-1H-benzo[d]imidazol-5-yl)methanone]",25
8,"COc1cc(C(=O)N2C[C@H]3CC[C@@H]2[C@@H]3N)cc2nc(-c3cc4cccnc4n3CC3CC3)n(C3CN(c4cncc(C#N)n4)C3)c12 [Example 69, 6-(3-{5-[(1R,4R,7R)-7-amino-2-azabicyclo[2.2.1]heptane-2-carbonyl]-2-[1-(cyclopropylmethyl)-1H-pyrrolo[2,3-b]pyridin-2-yl]-7-methoxy-1H-1,3-benzodiazol-1-yl}azetidin-1-yl)pyrazine-2-carbonitrile]",58

# The remaining molecules from weak to strong by IC50, led by results:
row,IC50 [nM],SMILES
1,179,"COc1cc(C(=O)N2C[C@H]3CC[C@@H]2[C@@H]3N)cc2nc(-c3cc4ccccc4n3CC3CC3)n(Cc3ccncc3)c12 [Example 272, (1R,4R,7R)-2-(2-[1-(cyclopropylmethyl)-1H-indol-2-yl]-7-methoxy-1-[(pyridin-4-yl)methyl]-1H-1,3-benzodiazole-5-carbonyl}-2-azabicyclo[2.2.1]heptan-7-amine]"
2,162,"COc1cc(C(=O)N2C[C@H]3CC[C@@H]2[C@@H]3N)cc2nc(-c3cc4cccnc4n3CC3CC3)n(CC3CCN(C(=O)c4ccnc(C)n4)CC3)c12 [Example 199, (1R,4R,7R)-2-{2-[1-(cyclopropylmethyl)-1H-pyrrolo[2,3-b]pyridin-2-yl]-7-methoxy-1-{[1-(2-methylpyrimidine-4-carbonyl)piperidin-4-yl]methyl}-1H-1,3-benzodiazole-5-carbonyl}-2-azabicyclo[2.2.1]heptan-7-amine]"
3,112,"COc1cc(C(=O)N2C[C@H]3CC[C@@H]2[C@@H]3N)cc2nc(-c3cc4ccccc4n3C)n(CC3CN(c4cncnc4C#N)C3)c12 [Example 44, 5-[3-({5-[(1R,4R,7R)-7-amino-2-azabicyclo[2.2.1]heptane-2-carbonyl]-7-methoxy-2-(1-methyl-1H-indol-2-yl)-1H-1,3-benzodiazol-1-yl}methyl)azetidin-1-yl]pyrimidine-4-carbonitrile]"
4,99,"COc1cc(C(=O)N2CC3CCC2[C@@H]3N)cc2nc(-c3cc4ccccc4n3CC3CC3)n(CC3CCN(c4ncccn4)C3)c12 (stereo in doubt) [Example 228, (1R,4R,7R)-2-{2-[1-(cyclopropylmethyl)-1H-indol-2-yl]-7-methoxy-1-{[(3S)-1-(pyrimidin-2-yl)pyrrolidin-3-yl]methyl}-1H-1,3-benzodiazole-5-carbonyl}-2-azabicyclo[2.2.1]heptan-7-amine]"
5,82,"COc1cc(C(=O)N2CC3CCC2[C@@H]3N)cc2nc(-c3cc4cccnc4n3CC3CC3)n(Cc3cnn(-c4ccncc4)c3)c12 (stereo partly drawn) [Example 409, (7R)-2-{2-[1-(cyclopropylmethyl)-1H-pyrrolo[2,3-b]pyridin-2-yl]-7-methoxy-1-{[1-(pyridin-4-yl)-1H-pyrazol-4-yl]methyl}-1H-1,3-benzodiazole-5-carbonyl)-2-azabicyclo[2.2.1]heptan-7-amine]"
6,69,"COc1cc(C(=O)N2C[C@H]3CC[C@@H]2[C@@H]3N)cc2nc(-c3cc4cccnc4n3CC3CC3)n(CC3CN(C(=O)c4ccnc(C)n4)C3)c12 [Example 119, (1R,4R,7R)-2-{2-[1-(cyclopropylmethyl)-1H-pyrrolo[2,3-b]pyridin-2-yl]-7-methoxy-1-{[1-(2-methylpyrimidine-4-carbonyl)azetidin-3-yl]methyl}-1H-1,3-benzodiazole-5-carbonyl}-2-azabicyclo[2.2.1]heptan-7-amine]"
7,66,"COc1cc(C(=O)N2CC3CCC2[C@@H]3N)cc2nc(-c3cc4ccccc4n3CC3CC3)n(Cc3cnn(-c4ccc(C)cn4)c3)c12 (stereo partly drawn) [Example 404, (7R)-2-{2-[1-(cyclopropylmethyl)-1H-indol-2-yl]-7-methoxy-1-{[1-(5-methylpyridin-2-yl)-1H-pyrazol-4-yl]methyl)-1H-1,3-benzodiazole-5-carbonyl}-2-azabicyclo[2.2.1]heptan-7-amine]"
8,44,"COc1cc(C(=O)N2CC3CCC2[C@@H]3N)cc2nc(-c3cc4ccccc4n3CC3CC3)n(CC3CN(C(=O)c4cncs4)C3)c12 (stereo partly drawn) [Example 448, (7R)-2-{2-[1-(cyclopropylmethyl)-1H-indol-2-yl]-7-methoxy-1-{[1-(1,3-thiazole-5-carbonyl)azetidin-3-yl]methyl}-1H-1,3-benzodiazole-5-carbonyl}-2-azabicyclo[2.2.1]heptan-7-amine]"
